# Assays:
# Assay in all cases: KINOMEscan binding assay
# [1] = molecular target: T1, ABL1 (E255K)- phosphorylated (Homo sapiens, UniProt P00519, E255K); conditions: 1000 nM, percent control relative to vehicle
# T1 construct: purchased DiscoveRx KINOMEscan
# Text: (§1) IC50 values were generated using Graphpad PRISM 5 software.
# DCAMKL1 = molecular target: T2, DCAMKL1 (Homo sapiens, UniProt O15075); conditions: 1000 nM, percent control relative to vehicle
# T2 construct: purchased DiscoveRx KINOMEscan
# Text: as §1
# PKAC-alpha = molecular target: T3, PKAC-alpha (Homo sapiens, UniProt P17612); conditions: 1000 nM, percent control relative to vehicle
# T3 construct: purchased DiscoveRx KINOMEscan
# Text: as §1
# MAPKAPK2 = molecular target: T4, MAPKAPK2 (Homo sapiens, UniProt P49137); conditions: 1000 nM, percent control relative to vehicle
# T4 construct: purchased DiscoveRx KINOMEscan
# Text: as §1
# TSSK1B = molecular target: T5, TSSK1B (Homo sapiens, UniProt Q9BXA7); conditions: 1000 nM, percent control relative to vehicle
# T5 construct: purchased DiscoveRx KINOMEscan
# Text: as §1
# CDK9 = molecular target: T6, CDK9 (Homo sapiens, UniProt P50750); conditions: 1000 nM, percent control relative to vehicle
# T6 construct: purchased DiscoveRx KINOMEscan
# Text: as §1
# LKB1 = molecular target: T7, LKB1 (Homo sapiens, UniProt Q15831); conditions: 1000 nM, percent control relative to vehicle
# T7 construct: purchased DiscoveRx KINOMEscan
# Text: as §1
# BMPR2 = molecular target: T8, BMPR2 (Homo sapiens, UniProt Q13873); conditions: 1000 nM, percent control relative to vehicle
# T8 construct: purchased DiscoveRx KINOMEscan
# Text: as §1
# [2] = molecular target: T9, JAK2 (JH1domain-catalytic) (Homo sapiens, UniProt O60674); conditions: 1000 nM, percent control relative to vehicle
# T9 construct: JAK2 (JH1domain-catalytic); purchased DiscoveRx KINOMEscan
# Text: as §1
# MLK1 = molecular target: T10, MLK1 (Homo sapiens, UniProt P80192); conditions: 1000 nM, percent control relative to vehicle
# T10 construct: purchased DiscoveRx KINOMEscan
# Text: as §1
# IKK-beta = molecular target: T11, IKK-beta (Homo sapiens, UniProt O14920); conditions: 1000 nM, percent control relative to vehicle
# T11 construct: purchased DiscoveRx KINOMEscan
# Text: as §1
# PDPK1 = molecular target: T12, PDPK1 (Homo sapiens, UniProt O15530); conditions: 1000 nM, percent control relative to vehicle
# T12 construct: purchased DiscoveRx KINOMEscan
# Text: as §1
# FGFR2 = molecular target: T13, FGFR2 (Homo sapiens, UniProt P21802); conditions: 1000 nM, percent control relative to vehicle
# T13 construct: purchased DiscoveRx KINOMEscan
# Text: as §1
# [3] = molecular target: T14, JAK3 (JH1domain-catalytic) (Homo sapiens, UniProt P52333); conditions: 1000 nM, percent control relative to vehicle
# T14 construct: JAK3 (JH1domain-catalytic); purchased DiscoveRx KINOMEscan
# Text: as §1
# BRAF (V600E) = molecular target: T15, BRAF (V600E) (Homo sapiens, UniProt P15056, V600E); conditions: 1000 nM, percent control relative to vehicle
# T15 construct: purchased DiscoveRx KINOMEscan
# Text: as §1
# AKT1 = molecular target: T16, AKT1 (Homo sapiens, UniProt P31749); conditions: 1000 nM, percent control relative to vehicle
# T16 construct: purchased DiscoveRx KINOMEscan
# Text: as §1
# GSK3B = molecular target: T17, GSK3B (Homo sapiens, UniProt P49841); conditions: 1000 nM, percent control relative to vehicle
# T17 construct: purchased DiscoveRx KINOMEscan
# Text: as §1
# PAK2 = molecular target: T18, PAK2 (Homo sapiens, UniProt Q13177); conditions: 1000 nM, percent control relative to vehicle
# T18 construct: purchased DiscoveRx KINOMEscan
# Text: as §1
# EGFR (L858R) = molecular target: T19, EGFR (L858R) (Homo sapiens, UniProt P00533, L858R); conditions: 1000 nM, percent control relative to vehicle
# T19 construct: purchased DiscoveRx KINOMEscan
# Text: as §1
# MEK2 = molecular target: T20, MEK2 (Homo sapiens, UniProt P36507); conditions: 1000 nM, percent control relative to vehicle
# T20 construct: purchased DiscoveRx KINOMEscan
# Text: as §1
# PIM2 = molecular target: T21, PIM2 (Homo sapiens, UniProt Q9P1W9); conditions: 1000 nM, percent control relative to vehicle
# T21 construct: purchased DiscoveRx KINOMEscan
# Text: as §1
# JNK1 = molecular target: T22, JNK1 (Homo sapiens, UniProt P45983); conditions: 1000 nM, percent control relative to vehicle
# T22 construct: purchased DiscoveRx KINOMEscan
# Text: as §1
# AURKB = molecular target: T23, AURKB (Homo sapiens, UniProt Q96GD4); conditions: 1000 nM, percent control relative to vehicle
# T23 construct: purchased DiscoveRx KINOMEscan
# Text: as §1
# [4] = molecular target: T24, TYK2 (JH1domain-catalytic) (Homo sapiens, UniProt P29597); conditions: 1000 nM, percent control relative to vehicle
# T24 construct: TYK2 (JH1domain-catalytic); purchased DiscoveRx KINOMEscan
# Text: as §1
# PLK1 = molecular target: T25, PLK1 (Homo sapiens, UniProt P53350); conditions: 1000 nM, percent control relative to vehicle
# T25 construct: purchased DiscoveRx KINOMEscan
# Text: as §1
# CSF1R = molecular target: T26, CSF1R (Homo sapiens, UniProt P07333); conditions: 1000 nM, percent control relative to vehicle
# T26 construct: purchased DiscoveRx KINOMEscan
# Text: as §1
# YANK3 = molecular target: T27, YANK3 (Homo sapiens, UniProt Q86UX6); conditions: 1000 nM, percent control relative to vehicle
# T27 construct: purchased DiscoveRx KINOMEscan
# Text: as §1
# PIK3CG = PIK3CG (Homo sapiens, UniProt P48736)
# Text: as §1
# TGFBR1 = molecular target: T28, TGFBR1 (Homo sapiens, UniProt P36897); conditions: 1000 nM, percent control relative to vehicle
# T28 construct: purchased DiscoveRx KINOMEscan
# Text: as §1
# BTK = molecular target: T29, BTK (Homo sapiens, UniProt Q06187); conditions: 1000 nM, percent control relative to vehicle
# T29 construct: purchased DiscoveRx KINOMEscan
# Text: as §1
# CDK2 = molecular target: T30, CDK2 (Homo sapiens, UniProt P24941); conditions: 1000 nM, percent control relative to vehicle
# T30 construct: purchased DiscoveRx KINOMEscan
# Text: as §1
# PDGFRA = molecular target: T31, PDGFRA (Homo sapiens, UniProt P16234); conditions: 1000 nM, percent control relative to vehicle
# T31 construct: purchased DiscoveRx KINOMEscan
# Text: as §1
# CDK7 = molecular target: T32, CDK7 (Homo sapiens, UniProt P50613); conditions: 1000 nM, percent control relative to vehicle
# T32 construct: purchased DiscoveRx KINOMEscan
# Text: as §1
# PLK3 = molecular target: T33, PLK3 (Homo sapiens, UniProt Q9H4B4); conditions: 1000 nM, percent control relative to vehicle
# T33 construct: purchased DiscoveRx KINOMEscan
# Text: as §1
# ABL1-phosphorylated = molecular target: T34, ABL1-phosphorylated (Homo sapiens, UniProt P00519); conditions: 1000 nM, percent control relative to vehicle
# T34 construct: purchased DiscoveRx KINOMEscan
# Text: as §1
# MET = molecular target: T35, MET (Homo sapiens, UniProt P08581); conditions: 1000 nM, percent control relative to vehicle
# T35 construct: purchased DiscoveRx KINOMEscan
# Text: as §1
# PIK3C2B = molecular target: T36, PIK3C2B (Homo sapiens, UniProt O00750); conditions: 1000 nM, percent control relative to vehicle
# T36 construct: purchased DiscoveRx KINOMEscan
# Text: as §1
# RAF1 = molecular target: T37, RAF1 (Homo sapiens, UniProt P04049); conditions: 1000 nM, percent control relative to vehicle
# T37 construct: purchased DiscoveRx KINOMEscan
# Text: as §1
# EPHA2 = molecular target: T38, EPHA2 (Homo sapiens, UniProt P29317); conditions: 1000 nM, percent control relative to vehicle
# T38 construct: purchased DiscoveRx KINOMEscan
# Text: as §1
# PIK3CG, sequence (P48736 whole entry): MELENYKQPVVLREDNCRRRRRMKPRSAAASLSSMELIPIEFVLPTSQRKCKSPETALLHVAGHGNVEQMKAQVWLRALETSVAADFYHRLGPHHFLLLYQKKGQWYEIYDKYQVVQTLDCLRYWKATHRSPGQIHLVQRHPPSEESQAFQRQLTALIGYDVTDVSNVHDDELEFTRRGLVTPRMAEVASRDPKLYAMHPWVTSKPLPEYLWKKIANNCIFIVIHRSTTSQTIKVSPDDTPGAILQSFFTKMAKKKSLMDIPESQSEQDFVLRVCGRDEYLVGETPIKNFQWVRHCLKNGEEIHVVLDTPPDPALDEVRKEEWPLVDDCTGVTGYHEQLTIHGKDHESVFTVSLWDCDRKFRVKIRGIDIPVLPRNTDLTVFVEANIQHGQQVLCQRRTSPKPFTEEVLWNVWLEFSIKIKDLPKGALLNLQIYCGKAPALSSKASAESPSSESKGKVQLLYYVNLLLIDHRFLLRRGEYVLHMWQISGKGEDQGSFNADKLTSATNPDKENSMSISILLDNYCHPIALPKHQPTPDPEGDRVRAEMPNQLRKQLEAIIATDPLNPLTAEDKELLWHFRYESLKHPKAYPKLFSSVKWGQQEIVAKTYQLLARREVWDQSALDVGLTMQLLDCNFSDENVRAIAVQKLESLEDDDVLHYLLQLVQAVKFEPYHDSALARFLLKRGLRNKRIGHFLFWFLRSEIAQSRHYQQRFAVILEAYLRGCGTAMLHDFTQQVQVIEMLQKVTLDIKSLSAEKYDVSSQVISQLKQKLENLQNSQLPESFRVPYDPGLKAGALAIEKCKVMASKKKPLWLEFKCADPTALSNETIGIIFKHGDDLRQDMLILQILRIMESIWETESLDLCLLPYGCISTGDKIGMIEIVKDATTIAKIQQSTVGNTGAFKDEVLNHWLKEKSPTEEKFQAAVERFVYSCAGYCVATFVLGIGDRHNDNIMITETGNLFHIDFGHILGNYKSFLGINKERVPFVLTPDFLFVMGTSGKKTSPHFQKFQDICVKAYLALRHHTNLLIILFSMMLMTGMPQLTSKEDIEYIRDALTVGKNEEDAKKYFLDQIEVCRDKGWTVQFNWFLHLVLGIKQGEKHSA
# T10 sequence (P80192 whole entry): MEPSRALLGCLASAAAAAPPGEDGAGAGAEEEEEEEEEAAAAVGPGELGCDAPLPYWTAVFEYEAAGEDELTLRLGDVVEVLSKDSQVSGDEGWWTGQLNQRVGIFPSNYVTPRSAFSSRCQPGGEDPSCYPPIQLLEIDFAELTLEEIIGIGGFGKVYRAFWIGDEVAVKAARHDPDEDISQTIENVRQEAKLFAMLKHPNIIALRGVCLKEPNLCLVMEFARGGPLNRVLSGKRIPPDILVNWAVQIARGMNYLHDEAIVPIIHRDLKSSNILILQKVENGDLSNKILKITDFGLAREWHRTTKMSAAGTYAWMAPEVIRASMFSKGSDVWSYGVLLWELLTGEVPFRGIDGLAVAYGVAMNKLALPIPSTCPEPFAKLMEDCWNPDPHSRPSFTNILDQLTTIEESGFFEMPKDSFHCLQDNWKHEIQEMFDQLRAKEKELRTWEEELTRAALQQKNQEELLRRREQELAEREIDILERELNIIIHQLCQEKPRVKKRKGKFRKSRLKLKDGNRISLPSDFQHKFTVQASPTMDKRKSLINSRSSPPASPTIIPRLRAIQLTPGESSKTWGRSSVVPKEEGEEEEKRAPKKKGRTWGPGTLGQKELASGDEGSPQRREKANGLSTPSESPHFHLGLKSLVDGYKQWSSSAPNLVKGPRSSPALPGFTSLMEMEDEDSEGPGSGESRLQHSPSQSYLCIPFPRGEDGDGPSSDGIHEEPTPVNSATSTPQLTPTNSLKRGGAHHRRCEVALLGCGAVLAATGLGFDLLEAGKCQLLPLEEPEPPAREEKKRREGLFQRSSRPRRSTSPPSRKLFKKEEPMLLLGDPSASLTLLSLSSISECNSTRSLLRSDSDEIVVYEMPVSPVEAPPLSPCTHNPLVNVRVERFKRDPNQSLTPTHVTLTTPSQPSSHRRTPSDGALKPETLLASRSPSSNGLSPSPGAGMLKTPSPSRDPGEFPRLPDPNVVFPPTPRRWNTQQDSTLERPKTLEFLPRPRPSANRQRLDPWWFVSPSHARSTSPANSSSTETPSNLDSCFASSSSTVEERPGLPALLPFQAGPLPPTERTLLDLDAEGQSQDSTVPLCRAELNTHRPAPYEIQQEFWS
# T28 sequence (P36897 34-503): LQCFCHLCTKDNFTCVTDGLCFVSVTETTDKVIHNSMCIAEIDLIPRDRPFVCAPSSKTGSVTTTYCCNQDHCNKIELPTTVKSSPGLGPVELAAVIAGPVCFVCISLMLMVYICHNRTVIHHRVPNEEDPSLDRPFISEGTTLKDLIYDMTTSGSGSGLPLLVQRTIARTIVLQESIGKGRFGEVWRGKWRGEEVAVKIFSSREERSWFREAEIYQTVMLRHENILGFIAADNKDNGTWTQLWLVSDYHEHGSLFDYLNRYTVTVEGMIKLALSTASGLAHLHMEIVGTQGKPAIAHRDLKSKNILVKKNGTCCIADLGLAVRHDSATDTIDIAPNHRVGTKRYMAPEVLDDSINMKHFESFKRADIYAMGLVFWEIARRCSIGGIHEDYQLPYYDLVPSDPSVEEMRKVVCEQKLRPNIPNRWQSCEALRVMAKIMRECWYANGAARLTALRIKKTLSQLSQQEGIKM
# T26 sequence (P07333 20-972): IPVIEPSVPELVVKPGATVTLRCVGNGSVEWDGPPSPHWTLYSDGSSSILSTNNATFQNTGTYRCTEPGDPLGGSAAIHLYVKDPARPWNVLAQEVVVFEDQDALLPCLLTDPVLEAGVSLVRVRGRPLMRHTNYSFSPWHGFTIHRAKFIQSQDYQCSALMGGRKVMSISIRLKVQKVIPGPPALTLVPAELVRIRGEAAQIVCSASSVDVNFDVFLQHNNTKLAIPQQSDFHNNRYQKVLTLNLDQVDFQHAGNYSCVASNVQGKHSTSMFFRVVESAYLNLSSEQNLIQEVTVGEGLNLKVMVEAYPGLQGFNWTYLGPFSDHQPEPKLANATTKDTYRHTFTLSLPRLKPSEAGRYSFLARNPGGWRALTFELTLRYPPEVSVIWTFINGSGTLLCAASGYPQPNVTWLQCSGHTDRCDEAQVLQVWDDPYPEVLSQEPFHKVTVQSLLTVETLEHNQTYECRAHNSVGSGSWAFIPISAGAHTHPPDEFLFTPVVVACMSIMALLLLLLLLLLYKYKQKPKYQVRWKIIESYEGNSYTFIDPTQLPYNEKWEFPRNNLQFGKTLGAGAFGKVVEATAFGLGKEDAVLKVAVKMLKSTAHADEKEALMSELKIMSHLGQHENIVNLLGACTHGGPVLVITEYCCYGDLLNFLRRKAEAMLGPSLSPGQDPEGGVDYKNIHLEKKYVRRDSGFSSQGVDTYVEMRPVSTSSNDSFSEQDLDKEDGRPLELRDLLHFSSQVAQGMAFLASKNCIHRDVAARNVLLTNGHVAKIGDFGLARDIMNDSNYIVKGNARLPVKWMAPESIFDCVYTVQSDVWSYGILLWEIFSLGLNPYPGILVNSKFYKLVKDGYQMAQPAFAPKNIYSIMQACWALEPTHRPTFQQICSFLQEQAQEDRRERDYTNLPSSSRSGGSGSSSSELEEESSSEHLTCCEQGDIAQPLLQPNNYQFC
# T23 sequence (Q96GD4 whole entry): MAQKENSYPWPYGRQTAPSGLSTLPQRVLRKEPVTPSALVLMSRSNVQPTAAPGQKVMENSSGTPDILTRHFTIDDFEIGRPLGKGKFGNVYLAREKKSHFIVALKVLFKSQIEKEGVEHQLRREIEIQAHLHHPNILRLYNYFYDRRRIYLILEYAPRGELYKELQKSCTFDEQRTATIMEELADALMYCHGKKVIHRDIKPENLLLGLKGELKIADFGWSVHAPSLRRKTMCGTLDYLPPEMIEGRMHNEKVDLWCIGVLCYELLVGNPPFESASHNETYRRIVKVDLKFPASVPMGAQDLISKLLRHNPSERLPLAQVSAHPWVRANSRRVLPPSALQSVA
# T9 sequence (O60674 840-1132 limits assumed): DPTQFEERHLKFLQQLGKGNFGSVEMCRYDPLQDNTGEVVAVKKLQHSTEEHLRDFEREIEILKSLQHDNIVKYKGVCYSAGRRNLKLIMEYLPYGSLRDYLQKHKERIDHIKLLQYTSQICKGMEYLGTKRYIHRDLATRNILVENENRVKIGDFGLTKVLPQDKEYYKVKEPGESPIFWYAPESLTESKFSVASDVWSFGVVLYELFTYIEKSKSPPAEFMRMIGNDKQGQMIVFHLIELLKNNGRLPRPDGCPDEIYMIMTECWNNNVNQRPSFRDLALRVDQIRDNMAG
# T16 sequence (P31749 whole entry): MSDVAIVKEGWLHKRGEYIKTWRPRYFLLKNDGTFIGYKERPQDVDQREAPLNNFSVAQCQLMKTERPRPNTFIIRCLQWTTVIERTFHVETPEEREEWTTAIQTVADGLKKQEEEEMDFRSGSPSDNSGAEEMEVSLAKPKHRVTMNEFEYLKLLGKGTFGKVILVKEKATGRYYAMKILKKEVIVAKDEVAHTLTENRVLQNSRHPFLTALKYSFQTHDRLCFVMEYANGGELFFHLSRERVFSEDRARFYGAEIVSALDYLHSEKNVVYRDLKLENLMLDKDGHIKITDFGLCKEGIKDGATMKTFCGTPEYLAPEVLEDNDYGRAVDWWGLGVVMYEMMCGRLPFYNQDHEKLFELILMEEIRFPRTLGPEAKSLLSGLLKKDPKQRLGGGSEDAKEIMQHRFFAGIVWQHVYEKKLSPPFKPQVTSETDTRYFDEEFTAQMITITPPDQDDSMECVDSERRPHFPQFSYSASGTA
# T24 sequence (P29597 888-1187 limits assumed): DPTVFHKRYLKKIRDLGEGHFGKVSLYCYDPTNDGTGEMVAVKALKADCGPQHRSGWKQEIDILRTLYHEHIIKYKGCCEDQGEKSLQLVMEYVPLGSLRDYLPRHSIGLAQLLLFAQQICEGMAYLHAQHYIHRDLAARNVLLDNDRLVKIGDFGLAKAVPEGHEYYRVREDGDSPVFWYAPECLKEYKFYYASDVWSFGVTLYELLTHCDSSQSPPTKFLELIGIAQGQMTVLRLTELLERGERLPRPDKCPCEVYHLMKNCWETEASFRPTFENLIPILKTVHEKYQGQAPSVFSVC
structure (smiles),measurement,setting,value
CNC(=O)c1cccc(-c2ccc3c(N4C5CCC4COC5)nc(N4CCOC[C@@H]4C)nc3n2)c1 [MTI-31],% Control,[1],78%
same,% Control,DCAMKL1,76%
same,% Control,PKAC-alpha,98%
same,% Control,MAPKAPK2,87%
same,% Control,TSSK1B,100%
same,% Control,CDK9,90%
same,% Control,LKB1,100%
same,% Control,BMPR2,88%
same,% Control,[2],88%
same,% Control,MLK1,100%
same,% Control,IKK-beta,69%
same,% Control,PDPK1,97%
same,% Control,FGFR2,100%
same,% Control,[3],82%
same,% Control,BRAF (V600E),93%
same,% Control,AKT1,100%
same,% Control,GSK3B,56%
same,% Control,PAK2,94%
same,% Control,EGFR (L858R),100%
same,% Control,MEK2,75%
same,% Control,PIM2,92%
same,% Control,JNK1,81%
same,% Control,AURKB,80%
same,% Control,[4],63%
same,% Control,PLK1,78%
same,% Control,CSF1R,99%
same,% Control,YANK3,85%
same,Kd,PIK3CG,> 1000 nM
same,% Control,"PIK3CG; 1000 nM, percent control relative to vehicle",100%
same,% Control,TGFBR1,93%
same,% Control,BTK,68%
same,% Control,CDK2,84%
same,% Control,PDGFRA,93%
same,% Control,CDK7,99%
same,% Control,PLK3,92%
same,% Control,ABL1-phosphorylated,70%
same,% Control,MET,100%
same,% Control,PIK3C2B,100%
same,% Control,RAF1,82%
same,% Control,EPHA2,98%
